Reference: patent US20060154243A1 (priority 2003, published 2006)

How the values were obtained:
[1] = system: rabbit serum obtained by immunizing with SARS-CoV strain Frankfurt 1; format: binding
[2] = system: sera SARS-green, SARS-yellow, 1a, 1b, 2, 6, 37, 62 and London; format: binding, human
[3] = system: control serum LUMC (pooled serum of ten healthy hospital workers); format: binding, human
[4] = system: control serum Blood-bank (commercial negative donor pooled serum); format: binding, human

NQTNVVPPALHLVDP
Rabbit serum linear peptides [1]: 0.1 | Rabbit serum looped peptides [1]: 0.4 | Recognition of the peptide by sera of individuals infected by SARS-CoV, form recognized [2]: recognized in linear and in looped form

ATTEELPDEFVVVTA
Rabbit serum linear peptides [1]: 0.1 | Rabbit serum looped peptides [1]: 0.5 | Recognition of the peptide by sera of individuals infected by SARS-CoV, form recognized [2]: recognized in linear and in looped form

IMLIIFWFSLEIQDL
Rabbit serum linear peptides [1]: 0.9 | Rabbit serum looped peptides [1]: 0.1 | Recognition of the peptide by sera of individuals infected by SARS-CoV, form recognized [2]: recognized in linear and in looped form | Control serum LUMC linear peptides [3]: 0.7 | Control serum LUMC looped peptides [3]: 0.4 | Control Serum Blood-Bank Looped peptides [4]: 0.6 | Control serum Blood-bank linear peptides [4]: 0.8

VQRCASNKPHVLEDP
Rabbit serum linear peptides [1]: 0.1 | Rabbit serum looped peptides [1]: 0.5 | Recognition of the peptide by sera of individuals infected by SARS-CoV, form recognized [2]: recognized in linear and in looped form

MTKLATTEELPDEFV
Rabbit serum linear peptides [1]: 0.1 | Rabbit serum looped peptides [1]: 0.6 | Recognition of the peptide by sera of individuals infected by SARS-CoV, form recognized [2]: recognized in linear and in looped form

LIMLIIFWFSLEIQD
Rabbit serum linear peptides [1]: 0.4 | Rabbit serum looped peptides [1]: 0.6 | Recognition of the peptide by sera of individuals infected by SARS-CoV, form recognized [2]: recognized in linear and in looped form | Control serum LUMC linear peptides [3]: 1.1 | Control serum LUMC looped peptides [3]: 0.7 | Control Serum Blood-Bank Looped peptides [4]: 0.7 | Control serum Blood-bank linear peptides [4]: 0.9

QMTKLATTEELPDEF
Rabbit serum linear peptides [1]: 0.1 | Rabbit serum looped peptides [1]: 0.6 | Recognition of the peptide by sera of individuals infected by SARS-CoV, form recognized [2]: recognized in linear and in looped form

LTITRMEDAMGQGQN
Rabbit serum linear peptides [1]: 0.3 | Rabbit serum looped peptides [1]: 0.3 | Recognition of the peptide by sera of individuals infected by SARS-CoV, form recognized [2]: only recognized in looped form

TRMEDAMGQGQNSAD
Rabbit serum linear peptides [1]: 0.4 | Rabbit serum looped peptides [1]: 0.4 | Recognition of the peptide by sera of individuals infected by SARS-CoV, form recognized [2]: only recognized in looped form

RCASNKPHVLEDPCK
Rabbit serum linear peptides [1]: 0.1 | Rabbit serum looped peptides [1]: 0.6 | Recognition of the peptide by sera of individuals infected by SARS-CoV, form recognized [2]: recognized in linear and in looped form

ITRMEDAMGQGQNSA
Rabbit serum linear peptides [1]: 0.1 | Rabbit serum looped peptides [1]: 0.4 | Recognition of the peptide by sera of individuals infected by SARS-CoV, form recognized [2]: only recognized in looped form

TITRMEDAMGQGQNS
Rabbit serum linear peptides [1]: 0.1 | Rabbit serum looped peptides [1]: 0.6 | Recognition of the peptide by sera of individuals infected by SARS-CoV, form recognized [2]: only recognized in looped form

FSLEIQDLEEPCTKV
Rabbit serum linear peptides [1]: 0.4 | Rabbit serum looped peptides [1]: 0.5 | Recognition of the peptide by sera of individuals infected by SARS-CoV, form recognized [2]: recognized in linear and in looped form | Control serum LUMC linear peptides [3]: 0.6 | Control serum LUMC looped peptides [3]: 0.7 | Control Serum Blood-Bank Looped peptides [4]: 1.0 | Control serum Blood-bank linear peptides [4]: 0.7

PALHLVDPQIQLTIT
Rabbit serum linear peptides [1]: 1.3 | Rabbit serum looped peptides [1]: 0.4 | Recognition of the peptide by sera of individuals infected by SARS-CoV, form recognized [2]: recognized in linear and in looped form

VVQRCASNKPHVLED
Rabbit serum linear peptides [1]: 0.2 | Rabbit serum looped peptides [1]: 0.5 | Recognition of the peptide by sera of individuals infected by SARS-CoV, form recognized [2]: recognized in linear and in looped form

VVQMTKLATTEELPD
Rabbit serum linear peptides [1]: 0.3 | Rabbit serum looped peptides [1]: 0.6 | Recognition of the peptide by sera of individuals infected by SARS-CoV, form recognized [2]: recognized in linear and in looped form

FWFSLEIQDLEEPCT
Rabbit serum linear peptides [1]: 0.1 | Rabbit serum looped peptides [1]: 0.5 | Recognition of the peptide by sera of individuals infected by SARS-CoV, form recognized [2]: recognized in linear and in looped form | Control serum LUMC linear peptides [3]: 0.3 | Control serum LUMC looped peptides [3]: 0.8 | Control Serum Blood-Bank Looped peptides [4]: 1.1 | Control serum Blood-bank linear peptides [4]: 0.5

VQMTKLATTEELPDE
Rabbit serum linear peptides [1]: 0.3 | Rabbit serum looped peptides [1]: 0.6 | Recognition of the peptide by sera of individuals infected by SARS-CoV, form recognized [2]: recognized in linear and in looped form

QRCASNKPHVLEDPC
Rabbit serum linear peptides [1]: 0.1 | Rabbit serum looped peptides [1]: 0.5 | Recognition of the peptide by sera of individuals infected by SARS-CoV, form recognized [2]: recognized in linear and in looped form

PNQTNVVPPALHLVD
Rabbit serum linear peptides [1]: 0.4 | Rabbit serum looped peptides [1]: 0.2 | Recognition of the peptide by sera of individuals infected by SARS-CoV, form recognized [2]: recognized in linear and in looped form

LLFLVLIMLIIFWFS
Rabbit serum linear peptides [1]: 0.5 | Rabbit serum looped peptides [1]: 0.6 | Control serum LUMC linear peptides [3]: 0.4 | Control serum LUMC looped peptides [3]: 0.4 | Control Serum Blood-Bank Looped peptides [4]: 0.9 | Control serum Blood-bank linear peptides [4]: 0.9

YLCFLAFLLFLVLIM
Rabbit serum linear peptides [1]: 0.3 | Rabbit serum looped peptides [1]: 0.3 | Control serum LUMC linear peptides [3]: 0.4 | Control serum LUMC looped peptides [3]: 0.8 | Control Serum Blood-Bank Looped peptides [4]: 0.6 | Control serum Blood-bank linear peptides [4]: 0.8

IDFYLCFLAFLLFLV
Rabbit serum linear peptides [1]: 0.4 | Rabbit serum looped peptides [1]: 0.5 | Control serum LUMC linear peptides [3]: 0.5 | Control serum LUMC looped peptides [3]: 0.7 | Control Serum Blood-Bank Looped peptides [4]: 0.6 | Control serum Blood-bank linear peptides [4]: 0.9

MNELTLIDFYLCFLA
Rabbit serum linear peptides [1]: 0.4 | Rabbit serum looped peptides [1]: 0.5 | Control serum LUMC linear peptides [3]: 1.1 | Control serum LUMC looped peptides [3]: 0.9 | Control Serum Blood-Bank Looped peptides [4]: 0.5 | Control serum Blood-bank linear peptides [4]: 0.7

RMEDAMGQGQNSADP
Rabbit serum linear peptides [1]: 0.1 | Rabbit serum looped peptides [1]: 0.5 | Recognition of the peptide by sera of individuals infected by SARS-CoV, form recognized [2]: only recognized in looped form

MEDAMGQGQNSADPK
Rabbit serum linear peptides [1]: 0.1 | Rabbit serum looped peptides [1]: 0.4 | Recognition of the peptide by sera of individuals infected by SARS-CoV, form recognized [2]: only recognized in looped form

TKLATTEELPDEFVV
Rabbit serum linear peptides [1]: 0.1 | Rabbit serum looped peptides [1]: 0.6 | Recognition of the peptide by sera of individuals infected by SARS-CoV, form recognized [2]: recognized in linear and in looped form

DFYLCFLAFLLFLVL
Rabbit serum linear peptides [1]: 0.3 | Rabbit serum looped peptides [1]: 0.4 | Control serum LUMC linear peptides [3]: 0.4 | Control serum LUMC looped peptides [3]: 0.6 | Control Serum Blood-Bank Looped peptides [4]: 0.6 | Control serum Blood-bank linear peptides [4]: 0.7

LATTEELPDEFVVVT
Rabbit serum linear peptides [1]: 0.1 | Rabbit serum looped peptides [1]: 0.6 | Recognition of the peptide by sera of individuals infected by SARS-CoV, form recognized [2]: recognized in linear and in looped form

PPALHLVDPQIQLTI
Rabbit serum linear peptides [1]: 0.2 | Rabbit serum looped peptides [1]: 0.3 | Recognition of the peptide by sera of individuals infected by SARS-CoV, form recognized [2]: recognized in linear and in looped form

QTNVVPPALHLVDPQ
Rabbit serum linear peptides [1]: 0.1 | Rabbit serum looped peptides [1]: 0.4 | Recognition of the peptide by sera of individuals infected by SARS-CoV, form recognized [2]: recognized in linear and in looped form

ELTLIDFYLCFLAFL
Rabbit serum linear peptides [1]: 0.4 | Rabbit serum looped peptides [1]: 0.6 | Control serum LUMC linear peptides [3]: 0.5 | Control serum LUMC looped peptides [3]: 0.7 | Control Serum Blood-Bank Looped peptides [4]: 0.6 | Control serum Blood-bank linear peptides [4]: 0.7

SCICTVVQRCASNKP
Rabbit serum linear peptides [1]: 0.0 | Rabbit serum looped peptides [1]: 0.8 | Recognition of the peptide by sera of individuals infected by SARS-CoV, form recognized [2]: recognized in linear and in looped form

LAFLLFLVLIMLIIF
Rabbit serum linear peptides [1]: 0.4 | Rabbit serum looped peptides [1]: 1.1 | Control serum LUMC linear peptides [3]: 0.3 | Control serum LUMC looped peptides [3]: 0.4 | Control Serum Blood-Bank Looped peptides [4]: 0.8 | Control serum Blood-bank linear peptides [4]: 0.6

IIFWFSLEIQDLEEP
Rabbit serum linear peptides [1]: 0.4 | Rabbit serum looped peptides [1]: 0.0 | Recognition of the peptide by sera of individuals infected by SARS-CoV, form recognized [2]: recognized in linear and in looped form | Control serum LUMC linear peptides [3]: 0.7 | Control serum LUMC looped peptides [3]: 0.8 | Control Serum Blood-Bank Looped peptides [4]: 0.9 | Control serum Blood-bank linear peptides [4]: 0.9

KLATTEELPDEFVVV
Rabbit serum linear peptides [1]: 0.2 | Rabbit serum looped peptides [1]: 0.5 | Recognition of the peptide by sera of individuals infected by SARS-CoV, form recognized [2]: recognized in linear and in looped form

CSCICTVVQRCASNK
Rabbit serum linear peptides [1]: 0.1 | Rabbit serum looped peptides [1]: 0.0 | Recognition of the peptide by sera of individuals infected by SARS-CoV, form recognized [2]: recognized in linear and in looped form

LVLIMLIIFWFSLEI
Rabbit serum linear peptides [1]: 0.4 | Rabbit serum looped peptides [1]: 0.6 | Control serum LUMC linear peptides [3]: 0.8 | Control serum LUMC looped peptides [3]: 0.3 | Control Serum Blood-Bank Looped peptides [4]: 0.7 | Control serum Blood-bank linear peptides [4]: 0.9

DPNQTNVVPPALHLV
Rabbit serum linear peptides [1]: 2.3 | Rabbit serum looped peptides [1]: 0.2 | Recognition of the peptide by sera of individuals infected by SARS-CoV, form recognized [2]: recognized in linear and in looped form

FLVLIMLIIFWFSLE
Rabbit serum linear peptides [1]: 0.4 | Rabbit serum looped peptides [1]: 0.6 | Control serum LUMC linear peptides [3]: 0.7 | Control serum LUMC looped peptides [3]: 0.7 | Control Serum Blood-Bank Looped peptides [4]: 0.8 | Control serum Blood-bank linear peptides [4]: 0.9

FLLFLVLIMLIIFWF
Rabbit serum linear peptides [1]: 0.5 | Rabbit serum looped peptides [1]: 0.7 | Control serum LUMC linear peptides [3]: 0.3 | Control serum LUMC looped peptides [3]: 0.5 | Control Serum Blood-Bank Looped peptides [4]: 0.6 | Control serum Blood-bank linear peptides [4]: 0.9

NELTLIDFYLCFLAF
Rabbit serum linear peptides [1]: 0.4 | Rabbit serum looped peptides [1]: 0.8 | Control serum LUMC linear peptides [3]: 0.6 | Control serum LUMC looped peptides [3]: 0.9 | Control Serum Blood-Bank Looped peptides [4]: 0.5 | Control serum Blood-bank linear peptides [4]: 0.6

CICTVVQRCASNKPH
Rabbit serum linear peptides [1]: 0.0 | Rabbit serum looped peptides [1]: 0.5 | Recognition of the peptide by sera of individuals infected by SARS-CoV, form recognized [2]: recognized in linear and in looped form
